Assay results as given in the supplement of paper PMC10307832.

How the values were obtained:
Assay in all cases: relative viability (nuclei count vs DMSO), 5 days (fraction); higher = more cells survive
[1] = compound: CC1=C(C=CC(=C1)[N+](=O)[O-])NS(=O)(=O)C2=C(C=CC(=C2)Cl)Cl [FH535] + COc1cccc2cc(-c3nc([C@H]4CC[C@H](C(=O)O)CC4)n4ncnc(N)c34)[nH]c12 [OSI-027] (partner 0.5 µM)
Method in brief: (§1)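 Lung cancer cell lines in 1536-well plates got either a single drug or a fixed anchor-drug dose together with five library-drug doses (not always all listed) in √10 steps, by pin tool, on the day after seeding. Nuclei were counted after 5 days, and relative viability is the treated-to-vehicle ratio of nuclei counts. Values are medians of duplicate plates.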

[2] = compound: CC1=C(C=CC(=C1)[N+](=O)[O-])NS(=O)(=O)C2=C(C=CC(=C2)Cl)Cl [FH535] + Nc1nc2[nH]cc(CCc3ccc(C(=O)N[C@@H](CCC(=O)O)C(=O)O)cc3)c2c(=O)[nH]1 [Pemetrexed] (partner 0.2 µM)
Method in brief: as §1

[3] = compound: CC1=C(C=CC(=C1)[N+](=O)[O-])NS(=O)(=O)C2=C(C=CC(=C2)Cl)Cl [FH535] + Cc1cc(Nc2cc(N3CCN(C)CC3)nc(Sc3ccc(NC(=O)C4CC4)cc3)n2)n[nH]1 [Tozasertib] (partner 0.1 µM)
Method in brief: as §1

[4] = compound: CC1=C(C=CC(=C1)[N+](=O)[O-])NS(=O)(=O)C2=C(C=CC(=C2)Cl)Cl [FH535] + CC(C)C[C@H](NC(=O)[C@H](Cc1ccccc1)NC(=O)c1cnccn1)B(O)O [Bortezomib] (partner 0.002 µM)
Method in brief: as §1

[5] = compound: CC1=C(C=CC(=C1)[N+](=O)[O-])NS(=O)(=O)C2=C(C=CC(=C2)Cl)Cl [FH535] + CC(=O)c1c(C)c2cnc(Nc3ccc(N4CCNCC4)cn3)nc2n(C2CCCC2)c1=O [Palbociclib] (partner 0.5 µM)
Method in brief: as §1

Cell Line | relative viability ([1]; first compound 0.04 µM) | relative viability ([1]; first compound 0.1265 µM) | relative viability ([1]; first compound 0.4 µM) | relative viability ([1]; first compound 1.265 µM) | relative viability ([2]; first compound 0.04 µM) | relative viability ([2]; first compound 0.1265 µM) | relative viability ([2]; first compound 0.4 µM) | relative viability ([2]; first compound 1.265 µM) | relative viability ([3]; first compound 0.04 µM) | relative viability ([3]; first compound 0.1265 µM) | relative viability ([3]; first compound 0.4 µM) | relative viability ([3]; first compound 1.265 µM) | relative viability ([4]; first compound 0.04 µM) | relative viability ([4]; first compound 0.1265 µM) | relative viability ([4]; first compound 0.4 µM) | relative viability ([4]; first compound 1.265 µM) | relative viability ([5]; first compound 0.04 µM) | relative viability ([5]; first compound 0.1265 µM) | relative viability ([5]; first compound 0.4 µM) | relative viability ([5]; first compound 1.265 µM)
HCC-366 | 0.695 | 0.862 | 1.09 | 0.756 | 0.169 | 0.134 | 0.174 | 0.159 | 0.0788 | 0.106 | 0.123 | 0.0854 | 1.1 | 1.12 | 0.987 | 0.925 | 0.418 | 0.412 | 0.37 | 0.296
NCI-H1651 | 0.675 | 0.695 | 0.618 | 0.507 | 0.568 | 0.595 | 0.551 | 0.553 | 0.753 | 0.639 | 0.633 | 0.64 | 0.876 | 0.911 | 0.889 | 0.779 | 0.51 | 0.497 | 0.532 | 0.437
LC-2-ad | 0.66 | 0.799 | 0.796 | 0.577 | 0.271 | 0.296 | 0.249 | 0.31 | 0.437 | 0.439 | 0.578 | 0.457 | 0.802 | 0.987 | 0.892 | 0.722 | 0.481 | 0.482 | 0.476 | 0.441
HCC-827 | 0.798 | 0.821 | 0.754 | 0.664 | 0.237 | 0.246 | 0.216 | 0.263 | 0.425 | 0.452 | 0.433 | 0.347 | 1.01 | 0.953 | 1.04 | 0.849 | 0.501 | 0.479 | 0.489 | 0.332
SW 1573 | 0.601 | 0.613 | 0.67 | 0.445 | 0.768 | 0.745 | 0.902 | 0.755 | 0.171 | 0.164 | 0.215 | 0.161 | 0.957 | 1.12 | 1.07 | 0.862 | 0.389 | 0.428 | 0.384 | 0.298
COR-L 105 | 0.691 | 0.701 | 0.613 | 0.608 | 1.16 | 1.08 | 0.943 | 0.968 | 0.359 | 0.339 | 0.337 | 0.304 | 0.804 | 0.822 | 0.653 | 0.675 | 0.335 | 0.386 | 0.43 | 0.359
LOU-NH91 | 0.708 | 0.815 | 0.557 | 0.397 | 0.377 | 0.428 | 0.429 | 0.457 | 0.634 | 0.68 | 0.633 | 0.33 | 0.504 | 0.497 | 0.527 | 0.37 | 0.458 | 0.536 | 0.548 | 0.497
LU99A | 0.241 | 0.304 | 0.284 | 0.279 | 0.148 | 0.171 | 0.199 | 0.239 | 0.297 | 0.281 | 0.329 | 0.273 | 0.726 | 1.01 | 1.05 | 0.948 | 0.35 | 0.436 | 0.432 | 0.342
NCI-H1650 | 0.558 | 0.591 | 0.456 | 0.523 | 0.408 | 0.371 | 0.355 | 0.306 | 0.369 | 0.425 | 0.513 | 0.343 | 0.198 | 0.195 | 0.184 | 0.2 | 0.325 | 0.323 | 0.303 | 0.212
UMC-11 | 0.413 | 0.561 | 0.431 | 0.416 | 0.653 | 0.799 | 0.788 | 0.763 | 0.189 | 0.213 | 0.196 | 0.202 | 0.545 | 0.478 | 0.48 | 0.54 | 0.346 | 0.361 | 0.311 | 0.325
HOP-62 | 0.77 | 0.779 | 0.678 | 0.713 | 0.322 | 0.267 | 0.345 | 0.35 | 0.407 | 0.362 | 0.348 | 0.412 | 0.579 | 0.949 | 0.768 | 0.682 | 0.481 | 0.462 | 0.456 | 0.393
NCI-H23 | 0.408 | 0.471 | 0.642 | 0.546 | 0.517 | 0.782 | 0.625 | 0.436 | 0.281 | 0.344 | 0.466 | 0.301 |  | 1.25 | 1.04 | 1.11 | 0.453 | 0.552 | 0.477 | 0.471
LCLC-103H | 0.448 | 0.383 | 0.341 | 0.42 | 0.456 | 0.48 | 0.467 | 0.52 | 0.417 | 0.521 | 0.516 | 0.453 | 0.948 | 1.01 | 0.939 | 1.01 | 0.509 | 0.426 | 0.493 | 0.416
NCI-H1734 |  | 0.633 | 0.55 | 0.503 | 0.45 | 0.434 | 0.415 | 0.388 |  | 0.26 | 0.263 | 0.297 | 0.775 | 0.894 | 0.771 | 0.828 | 0.375 | 0.312 | 0.351 | 0.332
